# Laboratory results taken from US11622988B2, “Method for reducing fat accumulation by using tetramethylisoscutellarein” (TCI CO., LTD., priority 2018, dated 2023).
# Test system: mouse bone marrow stromal cell OP9
# Experiment: Oil-red O staining of fat accumulation in differentiated OP9 cells
# Assay type: cell-based
# Details: 10 μg/mL, incubated 7-10 days, O.D. 510 nm
# Description: First, 8×10^4 mouse bone marrow stromal cell OP9 (ATCC® CRL-2749™) was seeded with 500 μL of pre-adipocyte expansion medium (supplemented with 90% minimum essential medium alpha medium (Gibco), […] (Gibco) and 1% penicillin/streptomycin (Gibco)) in a 24-well plate, and incubated at 37° C. for 7 days. Fresh differentiation medium (supplemented with 90% minimum essential medium alpha medium, 20% fetal bovine serum, and 1% penicillin/streptomycin) was replaced every three days. After 7 days, lipid droplet formation was observed using microscopy (ZEISS) to make sure the cells are fully differentiated.
# Thereafter, five groups of OP9 cells (i.e. an experimental group, three comparative groups (comparative group 1 to comparative group 3) and a control group) were prepared. […]
# The oil droplet was dissolved using 100% isopropanol, and the plate was put on shaker and incubation for 10 min. A volume of 100 μL was taken to 96-well plate for measuring the O.D ratio (510 nm) with the ELISA reader (BioTek).
# The statistical significance of the differences between each group was determined by Student's t-test in Microsoft Excel. […]
structure (smiles),measurement,value
COc1ccc(-c2cc(=O)c3c(OC)cc(OC)c(OC)c3o2)cc1 [tetramethylisoscutellarein],"oil red relative percentage, lower than the control group",28%
